US20080234262A1 (Wyeth, priority 2007, published 2008)

Assays:
PI3K = PI3K (Homo sapiens, UniProt P42336); experiment: Fluorescence polarization assay for PI3K; format: biochemical; settings: PI3Kα; read-out: PI3Kα IC50;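 also: PI3K kinase reaction on PIP2 with ATP, 30-60 min, product sensed by GST-GRP with red probe in fluorescence polarization (mP), controls without enzyme and at zero time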
prostate line LNCap = experiment: In vitro cell culture growth assay (MTS), LNCap; format: cell-based, human; settings: LNCap cells, three days after drug treatment;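 also: viable cell density read by absorbance at 490 nm, growth expressed as percent of vehicle-treated cells on the same plate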
breast line MDA468 = experiment: In vitro cell culture growth assay (MTS), MDA468; format: cell-based, human; settings: MDA468 cells, three days after drug treatment
Method in brief: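 Steps: plate cells; add inhibitors the next day; incubate 3 days; add MTS dye, which viable cells convert metabolically; measure absorbance at 490 nm; calculate percent of control growth relative to vehicle-treated cells in the same plate.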

Chain of PI3K (P42336 whole entry): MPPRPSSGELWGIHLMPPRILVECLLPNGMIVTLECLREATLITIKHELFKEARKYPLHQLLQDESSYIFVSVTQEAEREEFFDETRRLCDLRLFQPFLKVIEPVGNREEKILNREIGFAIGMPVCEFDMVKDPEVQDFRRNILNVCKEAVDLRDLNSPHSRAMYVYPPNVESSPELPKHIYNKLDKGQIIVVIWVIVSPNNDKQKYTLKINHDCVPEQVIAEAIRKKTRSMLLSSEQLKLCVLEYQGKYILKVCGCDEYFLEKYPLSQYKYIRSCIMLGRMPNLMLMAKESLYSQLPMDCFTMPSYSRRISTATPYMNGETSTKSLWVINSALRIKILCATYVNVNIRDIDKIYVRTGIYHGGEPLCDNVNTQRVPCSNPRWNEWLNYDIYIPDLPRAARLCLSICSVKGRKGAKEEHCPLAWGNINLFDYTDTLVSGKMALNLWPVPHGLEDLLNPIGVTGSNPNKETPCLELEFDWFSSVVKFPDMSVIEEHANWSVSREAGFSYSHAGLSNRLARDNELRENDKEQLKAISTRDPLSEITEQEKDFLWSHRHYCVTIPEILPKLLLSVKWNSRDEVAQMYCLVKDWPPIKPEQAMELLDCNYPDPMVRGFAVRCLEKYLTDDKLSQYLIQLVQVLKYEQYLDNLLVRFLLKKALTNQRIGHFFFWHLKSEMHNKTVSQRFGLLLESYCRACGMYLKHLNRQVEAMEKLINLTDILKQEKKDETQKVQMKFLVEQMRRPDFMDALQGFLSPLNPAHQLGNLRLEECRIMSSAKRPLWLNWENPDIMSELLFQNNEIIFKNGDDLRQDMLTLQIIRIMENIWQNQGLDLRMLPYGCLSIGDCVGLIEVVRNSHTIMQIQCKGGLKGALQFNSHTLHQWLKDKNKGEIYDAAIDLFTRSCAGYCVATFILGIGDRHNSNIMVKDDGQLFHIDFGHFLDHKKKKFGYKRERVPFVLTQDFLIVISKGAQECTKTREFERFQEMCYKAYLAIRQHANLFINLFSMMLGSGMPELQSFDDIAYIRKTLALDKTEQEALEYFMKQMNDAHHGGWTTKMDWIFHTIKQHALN
Chain of PI3K (P27986 whole entry partner): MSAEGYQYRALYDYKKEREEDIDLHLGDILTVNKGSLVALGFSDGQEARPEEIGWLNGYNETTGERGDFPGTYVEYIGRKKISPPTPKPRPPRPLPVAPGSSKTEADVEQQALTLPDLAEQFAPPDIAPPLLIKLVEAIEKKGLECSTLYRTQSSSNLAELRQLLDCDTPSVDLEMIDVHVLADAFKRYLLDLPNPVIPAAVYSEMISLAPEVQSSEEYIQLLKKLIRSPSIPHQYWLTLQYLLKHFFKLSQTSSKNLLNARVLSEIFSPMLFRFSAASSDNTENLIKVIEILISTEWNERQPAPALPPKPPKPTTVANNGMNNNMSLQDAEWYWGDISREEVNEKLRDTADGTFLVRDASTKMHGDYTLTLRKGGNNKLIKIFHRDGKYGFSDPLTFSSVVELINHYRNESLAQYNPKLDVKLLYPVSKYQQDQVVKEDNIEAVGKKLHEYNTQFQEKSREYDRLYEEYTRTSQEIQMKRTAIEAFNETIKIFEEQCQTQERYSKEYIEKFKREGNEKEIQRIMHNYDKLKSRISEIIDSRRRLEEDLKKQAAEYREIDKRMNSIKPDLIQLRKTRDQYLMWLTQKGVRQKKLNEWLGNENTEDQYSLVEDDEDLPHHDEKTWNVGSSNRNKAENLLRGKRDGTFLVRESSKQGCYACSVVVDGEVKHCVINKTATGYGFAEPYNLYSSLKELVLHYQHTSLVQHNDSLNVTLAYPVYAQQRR

## O=C(NCCCO)Nc1ccc(-c2nc(N3CCOCC3)c3cnn(C4CCN(Cc5ccccc5)CC4)c3n2)cc1 [Compound 514, 1-{4-[1-(1-benzylpiperidin-4-yl)-4-morpholin-4-yl-1H-pyrazolo[3,4-d]pyrimidin-6-yl]phenyl}-3-(3-hydroxypropyl)urea]
PI3K
  IC50: 0.364 µM
Prostate line LNCap; Homo sapiens, LNCaP, 72 h
  IC50: 0.08 µM
Breast line MDA468; Homo sapiens, 72 h
  IC50: 0.65 µM

## N#CNC(=O)Nc1ccc(-c2nc(N3CCOCC3)c3cnn(C4CCN(Cc5cccnc5)CC4)c3n2)cc1 [Example 409, N′-cyano-N-(4-{4-morpholin-4-yl-1-[1-(pyridin-3-ylmethyl)piperidin-4-yl]-1H-pyrazolo[3,4-d]pyrimidin-6-yl}phenyl)carbamimidic acid]
PI3K
  IC50: 0.363 µM
Prostate line LNCap; Homo sapiens, LNCaP, 72 h
  IC50: 0.8 µM
Breast line MDA468; Homo sapiens, 72 h
  IC50: 2.5 µM

## O=C(Nc1ccncc1)Nc1ccc(-c2nc(N3CCOCC3)c3cnn(C4CCN(CC(F)(F)F)CC4)c3n2)cc1 [Compound 786, 1-(4-{4-morpholin-4-yl-1-[1-(2,2,2-trifluoroethyl)piperidin-4-yl]-1H-pyrazolo[3,4-d]pyrimidin-6-yl}phenyl)-3-pyridin-4-ylurea]
PI3K
  IC50: 0.048 µM
Prostate line LNCap; Homo sapiens, LNCaP, 72 h
  IC50: 0.08 µM
Breast line MDA468; Homo sapiens, 72 h
  IC50: 1.1 µM

## O=C(NCCO)Nc1ccc(-c2nc(N3CCOCC3)c3cnn(C4CCN(Cc5cccnc5)CC4)c3n2)cc1 [Example 316, 1-(2-hydroxyethyl)-3-(4-{4-morpholin-4-yl-1-[1-(pyridin-3-ylmethyl)piperidin-4-yl]-1H-pyrazolo[3,4-d]pyrimidin-6-yl}phenyl)urea]
PI3K
  IC50: 0.163 µM
Prostate line LNCap; Homo sapiens, LNCaP, 72 h
  IC50: 0.5 µM
Breast line MDA468; Homo sapiens, 72 h
  IC50: 0.6 µM

## OCCCN1CCC(n2ncc3c(N4CCOCC4)nc(-c4ccc5[nH]ccc5c4)nc32)CC1 [Compound 247, 3-{4-[6-(1H-indol-5-yl)-4-morpholin-4-yl-1H-pyrazolo[3,4-d]pyrimidin-1-yl]piperidin-1-yl}propan-1-ol]
PI3K
  IC50: 7.29 µM
Prostate line LNCap; Homo sapiens, LNCaP, 72 h
  IC50: 2.5 µM
Breast line MDA468; Homo sapiens, 72 h
  IC50: 3 µM

## CNC(=O)Nc1ccc(-c2nc(N3CCOCC3)c3cnn(C4CCN(Cc5ccccc5O)CC4)c3n2)cc1 [Compound 644, 1-(4-{1-[1-(2-hydroxybenzyl)piperidin-4-yl]-4-morpholin-4-yl-1H-pyrazolo[3,4-d]pyrimidin-6-yl}phenyl)-3-methylurea]
PI3K
  IC50: 0.036 µM
Prostate line LNCap
  IC50: 0.06 µM
Breast line MDA468
  IC50: 0.32 µM

## CNC(=O)Nc1ccc(-c2nc(N3CCOCC3)c3cnn(C4CCC(=O)CC4)c3n2)cc1 [Example 322, 1-methyl-3-{4-[4-morpholin-4-yl-1-(4-oxocyclohexyl)-1H-pyrazolo[3,4-d]pyrimidin-6-yl]phenyl}urea]
PI3K
  IC50: 0.056 µM
Prostate line LNCap; Homo sapiens, LNCaP, 72 h
  IC50: 0.027 µM
Breast line MDA468; Homo sapiens, 72 h
  IC50: 0.2 µM

## COC(=O)Nc1ccc(-c2nc(N3CCOCC3)c3cnn(C4CCN(C(=O)OC(C)C)CC4)c3n2)cc1 [Compound 806, isopropyl 4-(6-{4-[(methoxycarbonyl)amino]phenyl}-4-morpholin-4-yl-1H-pyrazolo[3,4-d]pyrimidin-1-yl)piperidine-1-carboxylate]
PI3K
  IC50: 4.55 µM
Prostate line LNCap; Homo sapiens, LNCaP, 72 h
  IC50: 0.7 µM
Breast line MDA468; Homo sapiens, 72 h
  IC50: 0.9 µM

## C[C@@H]1COCCN1c1nc(-c2cccc(O)c2)nc2c1cnn2-c1ccccc1 [Compound 942, 3-{4-[(3R)-3-methylmorpholin-4-yl]-1-phenyl-1H-pyrazolo[3,4-d]pyrimidin-6-yl}phenol]
PI3K
  IC50: 1.39 µM
Prostate line LNCap; Homo sapiens, LNCaP, 72 h
  IC50: 2.8 µM
Breast line MDA468; Homo sapiens, 72 h
  IC50: 10.2 µM

## CNC(=O)Nc1ccc(-c2nc(N3CCOCC3)c3cnn(C4CCN(C(=O)c5ccc(Br)cc5)CC4)c3n2)cc1 [Example 360, 1-(4-{1-[1-(4-bromobenzoyl)piperidin-4-yl]-4-morpholin-4-yl-1H-pyrazolo[3,4-d]pyrimidin-6-yl}phenyl)-3-methylurea]
PI3K
  IC50: 0.035 µM
Prostate line LNCap; Homo sapiens, LNCaP, 72 h
  IC50: 0.052 µM
Breast line MDA468; Homo sapiens, 72 h
  IC50: 0.2 µM

## c1cc2cc(-c3nc(N4CCOCC4)c4cnn(C5CCC6(CC5)OCCO6)c4n3)ccc2[nH]1 [Compound 142]
PI3K
  IC50: 1.49 µM
Prostate line LNCap; Homo sapiens, LNCaP, 72 h
  IC50: 0.32 µM
Breast line MDA468; Homo sapiens, 72 h
  IC50: 2.2 µM

## CNCCNC(=O)Nc1ccc(-c2nc(N3CCOCC3)c3cnn(C4CCN(Cc5ccccc5)CC4)c3n2)cc1 [Example 300, 1-{4-[1-(1-benzylpiperidin-4-yl)-4-morpholin-4-yl-1H-pyrazolo[3,4-d]pyrimidin-6-yl]phenyl}-3-[2-(methylamino)ethyl]urea]
PI3K
  IC50: 0.013 µM
Prostate line LNCap; Homo sapiens, LNCaP, 72 h
  IC50: 0.2 µM
Breast line MDA468; Homo sapiens, 72 h
  IC50: 0.2 µM

## O=C1Cc2cc(-c3nc(N4CCOCC4)c4cnn(-c5ccccc5)c4n3)ccc2N1 [Compound 433, 5-(4-morpholin-4-yl-1-phenyl-1H-pyrazolo[3,4-d]pyrimidin-6-yl)-1,3-dihydro-2H-indol-2-one]
PI3K
  IC50: 1.03 µM
Prostate line LNCap; Homo sapiens, LNCaP, 72 h
  IC50: 60 µM
Breast line MDA468; Homo sapiens, 72 h
  IC50: 60 µM

## COC(=O)N1CCC(n2ncc3c(N4CCOC(C)C4)nc(-c4ccc(NC(=O)Nc5ccccn5)cc4)nc32)CC1 (stereo not drawn) [Compound 847, methyl 4-[4-(2-methylmorpholin-4-yl)-6-{4-[(pyridin-2-ylcarbamoyl)amino]phenyl}-1H-pyrazolo[3,4-d]pyrimidin-1-yl]piperidine-1-carboxylate]
PI3K
  IC50: 8.32 µM
Prostate line LNCap; Homo sapiens, LNCaP, 72 h
  IC50: 13 µM
Breast line MDA468; Homo sapiens, 72 h
  IC50: 15 µM

## Nc1cccc(-c2nc(N3CCOCC3)c3cnn(C4CCN(C(=O)c5cccnc5)CC4)c3n2)n1 [Compound 436, 6-{4-morpholin-4-yl-1-[1-(pyridin-3-ylcarbonyl)piperidin-4-yl]-1H-pyrazolo[3,4-d]pyrimidin-6-yl}pyridin-2-amine]
PI3K
  IC50: 4.99 µM
Prostate line LNCap; Homo sapiens, LNCaP, 72 h
  IC50: 9.8 µM
Breast line MDA468; Homo sapiens, 72 h
  IC50: 25 µM

## O=C(Nc1ccc(-c2nc(N3CCOCC3)c3cnn(C4CCN(Cc5cccnc5)CC4)c3n2)cc1)Nc1cccnc1 [Compound 559, 1-(4-{4-morpholin-4-yl-1-[1-(pyridin-3-ylmethyl)piperidin-4-yl]-1H-pyrazolo[3,4-d]pyrimidin-6-yl}phenyl)-3-pyridin-3-ylurea]
PI3K
  IC50: 0.02 µM
Prostate line LNCap; Homo sapiens, LNCaP, 72 h
  IC50: < 0.027 µM
Breast line MDA468; Homo sapiens, 72 h
  IC50: < 0.027 µM

## O=C(Nc1ccccc1)Nc1ccc(-c2nc(N3CCOCC3)c3cnn(C4CCN(CCCCO)CC4)c3n2)cc1 [Compound 748, 1-(4-{1-[1-(4-hydroxybutyl)piperidin-4-yl]-4-morpholin-4-yl-1H-pyrazolo[3,4-d]pyrimidin-6-yl}phenyl)-3-phenylurea]
PI3K
  IC50: 0.053 µM
Prostate line LNCap; Homo sapiens, LNCaP, 72 h
  IC50: 0.08 µM
Breast line MDA468; Homo sapiens, 72 h
  IC50: 0.39 µM

## CCNC(=O)Nc1ccc(-c2nc(N3CCOCC3)c3cnn(C4CCN(C(=O)C(C)C)CC4)c3n2)cc1 [Compound 822, 1-ethyl-3-{4-[1-(1-isobutyrylpiperidin-4-yl)-4-morpholin-4-yl-1H-pyrazolo[3,4-d]pyrimidin-6-yl]phenyl}urea]
PI3K
  IC50: 1.23 µM
Prostate line LNCap; Homo sapiens, LNCaP, 72 h
  IC50: 0.12 µM
Breast line MDA468; Homo sapiens, 72 h
  IC50: 0.5 µM

## CCOC(=O)N1CCC(n2ncc3c(N4CCOC[C@@H]4C)nc(-c4ccc(NC(=O)NCCF)cc4)nc32)CC1 [Compound 895, ethyl 4-{6-(4-{[(2-fluoroethyl)carbamoyl]amino}phenyl)-4-[(3S)-3-methylmorpholin-4-yl]-1H-pyrazolo[3,4-d]pyrimidin-1-yl}piperidine-1-carboxylate]
PI3K
  IC50: 0.521 µM
Prostate line LNCap; Homo sapiens, LNCaP, 72 h
  IC50: 0.1 µM
Breast line MDA468; Homo sapiens, 72 h
  IC50: 0.95 µM

## CC(C)(C)OC(=O)N1CCC[C@@H](n2ncc3c(N4CCOCC4)nc(-c4ccc(N)cc4)nc32)C1 [Compound 871, tert-butyl (3R)-3-[6-(4-aminophenyl)-4-morpholin-4-yl-1H-pyrazolo[3,4-d]pyrimidin-1-yl]piperidine-1-carboxylate]
PI3K
  IC50: 4.3 µM
Prostate line LNCap; Homo sapiens, LNCaP, 72 h
  IC50: 7.5 µM
Breast line MDA468; Homo sapiens, 72 h
  IC50: 2.3 µM

## c1ccc(CN2CCC(n3ncc4c(N5CCOCC5)nc(-c5cccc6cc[nH]c56)nc43)CC2)cc1 [Example 72]
PI3K
  IC50: 0.52 µM
Prostate line LNCap; Homo sapiens, LNCaP, 72 h
  IC50: 9.5 µM
Breast line MDA468; Homo sapiens, 72 h
  IC50: 6 µM

## CNC(=O)Nc1ccc(-c2nc(N3CCOCC3)c3cnn(C4CCN(C(=O)c5cccnc5)CC4)c3n2)cc1 [Compound 219]
PI3K
  IC50: 0.548 µM
Prostate line LNCap; Homo sapiens, LNCaP, 72 h
  IC50: 0.15 µM
Breast line MDA468; Homo sapiens, 72 h
  IC50: 0.6 µM

## CNC(=O)Nc1ccc(-c2nc(N3CCOCC3)c3cnn(C4CCN(C(C)=O)CC4)c3n2)cc1 [Compound 716, 1-{4-[1-(1-acetylpiperidin-4-yl)-4-morpholin-4-yl-1H-pyrazolo[3,4-d]pyrimidin-6-yl]phenyl}-3-methylurea]
PI3K
  IC50: 0.224 µM
Prostate line LNCap
  IC50: 0.8 µM
Breast line MDA468
  IC50: 1.2 µM

## O=C(N1CCOCC1)N1CCC(n2ncc3c(N4CCOCC4)nc(-c4ccc5[nH]ccc5c4)nc32)CC1 [Compound 121]
PI3K
  IC50: 2.13 µM
Prostate line LNCap; Homo sapiens, LNCaP, 72 h
  IC50: 0.6 µM
Breast line MDA468; Homo sapiens, 72 h
  IC50: 2 µM

## NC(=O)c1cccc(-c2nc(N3CCOCC3)c3cnn(C4CCN(Cc5ccccc5)CC4)c3n2)c1 [Compound 82]
PI3K
  IC50: 0.877 µM
Prostate line LNCap; Homo sapiens, LNCaP, 72 h
  IC50: 13 µM
Breast line MDA468; Homo sapiens, 72 h
  IC50: 29 µM

## CCCOC(=O)N1CCC(n2ncc3c(N4CCOCC4)nc(-c4ccc(NC(=O)Nc5ccccc5)cc4)nc32)CC1 [Compound 849, propyl 4-(4-morpholin-4-yl-6-{4-[(phenylcarbamoyl)amino]phenyl}-1H-pyrazolo[3,4-d]pyrimidin-1-yl)piperidine-1-carboxylate]
PI3K
  IC50: 0.024 µM
Prostate line LNCap; Homo sapiens, LNCaP, 72 h
  IC50: 0.095 µM
Breast line MDA468; Homo sapiens, 72 h
  IC50: 0.3 µM

## CNC(=O)Nc1ccc(-c2nc(N3CCOCC3)c3cnn(C4CCN(C(=O)CC(=O)OC)CC4)c3n2)cc1 [Compound 757, methyl 3-[4-(6-{4-[(methylcarbamoyl)amino]phenyl}-4-morpholin-4-yl-1H-pyrazolo[3,4-d]pyrimidin-1-yl)piperidin-1-yl]-3-oxopropanoate]
PI3K
  IC50: 0.124 µM
Prostate line LNCap; Homo sapiens, LNCaP, 72 h
  IC50: 2 µM
Breast line MDA468; Homo sapiens, 72 h
  IC50: 1.1 µM

## NC(=O)Nc1ccc(-c2nc(N3CCOCC3)c3cnn(C4CCN(C(=O)c5cccnc5)CC4)c3n2)cc1 [Compound 546, 1-(4-{4-morpholin-4-yl-1-[1-(pyridin-3-ylcarbonyl)piperidin-4-yl]-1H-pyrazolo[3,4-d]pyrimidin-6-yl}phenyl)urea]
PI3K
  IC50: 0.178 µM
Prostate line LNCap; Homo sapiens, LNCaP, 72 h
  IC50: 3 µM
Breast line MDA468; Homo sapiens, 72 h
  IC50: 1.8 µM

## O=C(NCCO)Nc1ccc(-c2nc(N3CCOCC3)c3cnn(C4CCN(Cc5cccnc5)CC4)c3n2)cc1 [Compound 561, 1-(2-hydroxyethyl)-3-(4-{4-morpholin-4-yl-1-[1-(pyridin-3-ylmethyl)piperidin-4-yl]-1H-pyrazolo[3,4-d]pyrimidin-6-yl}phenyl)urea]
PI3K
  IC50: 0.162 µM
Prostate line LNCap; Homo sapiens, LNCaP, 72 h
  IC50: 0.5 µM
Breast line MDA468; Homo sapiens, 72 h
  IC50: 0.6 µM
